Measurements taken from USH25H, “Thiophosphoryl triamide as a urease inhibitor” (Tennessee Valley Authority, priority 1985, dated 1986).

Columns and labels:
urease [1] = conditions: IFDC, unpublished results; cited from earlier work
[2] = system: soil urease (Crowley silt loam); assay: Well-mixed inhibitor-soil incubation test, urea added at intervals (modified Douglass and Bremner procedure); type: biochemical; conditions: for Percent urea unhydrolyzed (higher = more urease inhibition): 7 micromoles per 120 g Crowley soil, 30° C., 16 hours with urea
Protocol: Test compounds in Example II, infra, were evaluated in soil systems by a modification of the Douglass and Bremner procedure [L. A. Douglass and J. W. Bremner, Soil Biol. Biochem. 3, 309-315 (1971)] in which solutions or suspensions of the test compounds were mixed throughout the soil. Then at selected time intervals urea was added to the soil-inhibitor mixtures. The advantage of this procedure is that soil urease inhibition by the test compounds can be detected for time periods lasting up to several weeks or longer.
(§1) Specifics of the procedure for evaluating the test compounds in Example II were the following. Urease-active soil (Crowley silt loam from Louisiana) was moistened to a moisture content of 16% (dry weight basis) and preincubated at room temperature for two days. One milliliter of solution or suspension containing 7 micromoles of each test compound was added to 120 g of moist soil and mixed well. Polyvinylchloride cylinders 12-cm long and 4 cm in diameter were filled with the inhibitor-soil mixtures, packed to a bulk density of about 0.9 g/cm^3, and covered with a perforated plastic film. […] At each time interval, 1 ml of urea solution containing 50 mg of urea was mixed well with the inhibitor-soil mixture from a single column. The urea-inhibitor-soil mixture was packed in a column to a bulk density of about 0.9 g/cm^3, covered with a perforated plastic film, and reincubated for 16 hours at 30° C. Following the 16 hours of reincubation, about 120 g of the urea-inhibitor-soil mixture was extracted with 250 ml of 2 M KCl containing 5 ppm of […]. The KCl-PPDA extracts were analyzed on the Auto Analyzer II [Technicon method No. 40001 FD4, Technicon, Tarrytown, N.Y., U.S.A. (1974)]. Three replicates were used on all treatments and checks.
as §1, with “are as follows.” for “were the following.”, “New York,” for “N.Y.,”, “checks. Two groups of compounds were tested as indicated in Table IV as Test Series I and Test Series II.” for “checks.”

[3] = system: soil urease (Hastings silt loam); assay: Urea hydrolysis in bands of urea plus inhibitor in soil (banded soil system); type: biochemical; conditions: for % inhibition, as measured by percent urea unhydrolyzed: 41 mg inhibitor + 410 mg urea per band, Hastings silt loam, 25° C.
From the text: Another advantage of the banded configuration compared with mixing throughout the soil is that slightly soluble test compounds can be easily band applied, whereas it is difficult to achieve a known degree of mixing of a small quantity of slightly soluble test compound with soil. The banded configuration also enables testing for urease inhibition under realistic soil conditions prior to the development of techniques for cogranulating a wide range of test compounds with urea. […] Urease-active soil (Hastings silt loam) was moistened to a moisture content of 20% (dry weight basis) and preincubated at room temperature for two days. Plexiglas containers (6×6×6 -cm) were one-half filled with soil and packed to a bulk density of 1.1 g/cm^3. Urea or urea plus inhibitor (thoroughly mixed) was distributed in a narrow band 6-cm long on the soil surface. The containers then were filled with soil, again packing to a bulk density of 1.1 g/cm^3. The containers were incubated at 25° C. for the desired reaction period, after which the containers were frozen to about -5° C. to stop urea hydrolysis. Immediately prior to extracting the remaining urea from the soil, said soil was allowed to thaw. Soil from each container was thoroughly mixed, and a 10-g sample was extracted with 100 ml of 2 M KCl containing phenylmercuric acetate to prevent urea hydrolysis during handling [L. A. Douglass and J. M. Bremner, Soil Sci. Soc. Am.
Urease-active soil (Hastings silt loam) was moistened to a moisture content of 20% and preincubated at room temperature for two days. Plexiglas containers (6×6×6 cm) were one-half filled with soil and packed to a bulk density of 1.1 g/cm^3. Urea or urea plus inhibitor (thoroughly mixed) was distributed in a narrow band 6-cm long on the surface of the soil. The containers then were filled with soil and again packed to a bulk density of 1.1 g/cm^3. The containers were incubated at 25° C. for the desired reaction period. The soil from each container was thoroughly mixed, and a 10-g sample was extracted with 100 ml of 2 M KCl containing 5 ppm phenylmercuric acetate to prevent urea hydrolysis during handling [L. A. Douglass and J. M. Bremner, Soil Sci. Soc. Am. […] The urea in the extracts was determined colorimetrically as a measure of the unhydrolyzed urea.

urease [4] = conditions: literature and earlier patents; cited from earlier work
[5] = Test Series I, inhibitor incubation 0 days
[6] = Test Series I, inhibitor incubation 3 days
[7] = Test Series I, inhibitor incubation 7 days
[8] = Test Series I, inhibitor incubation 14 days
[9] = Test Series I, inhibitor incubation 21 days
[10] = Test Series I, inhibitor incubation 35 days
[11] = Test Series II, inhibitor incubation 0 days
[12] = Test Series II, inhibitor incubation 7 days
[13] = Test Series II, inhibitor incubation 15 days
[14] = Test Series II, inhibitor incubation 21 days

SMILES | type of urease inhibition (urease [1]) | Percent urea unhydrolyzed (higher = more urease inhibition) [2, 5] [%] | Percent urea unhydrolyzed (higher = more urease inhibition) [2, 6] [%] | Percent urea unhydrolyzed (higher = more urease inhibition) [2, 7] [%] | Percent urea unhydrolyzed (higher = more urease inhibition) [2, 8] [%] | Percent urea unhydrolyzed (higher = more urease inhibition) [2, 9] [%] | Percent urea unhydrolyzed (higher = more urease inhibition) [2, 10] [%] | Percent urea unhydrolyzed (higher = more urease inhibition) [2, 11] [%] | Percent urea unhydrolyzed (higher = more urease inhibition) [2, 12] [%] | Percent urea unhydrolyzed (higher = more urease inhibition) [2, 13] [%] | Percent urea unhydrolyzed (higher = more urease inhibition) [2, 14] [%] | urease inhibitory activity remaining after long inhibitor incubation (in words) ([2]; up to 21 days incubation, Table IV, FIGS. 3 and 4) | effectiveness as an inhibitor of soil urease activity compared with PPDA (in words) ([3]; Table III, FIGS. 1 and 2, three-day and six-day tests) | % inhibition, as measured by percent urea unhydrolyzed ([3]; Test Series I, 3 days) [%] | % inhibition, as measured by percent urea unhydrolyzed ([3]; Test Series I, 6 days) [%] | % inhibition, as measured by percent urea unhydrolyzed ([3]; Test Series II, 0 days) [%] | % inhibition, as measured by percent urea unhydrolyzed ([3]; Test Series II, 3 days) [%] | % inhibition, as measured by percent urea unhydrolyzed ([3]; Test Series II, 6 days) [%] | urease inhibition (in words) reported by previous workers (urease [4])
Oc1ccc(O)cc1 [hydroquinone] | mixed inhibition mechanism | – | – | – | – | – | – | – | – | – | – | – | – | – | – | – | – | – | –
NP(N)(N)=S [TPTA, Thiophosphoryl triamide] | – | 59 | 54 | 54 | 19 | 27 | 2 | 47 | 13 | 37 | 18 | superior | superior to PPDA | 71.7 | 34.9 | 100.0 | 88.0 | 61.1 | ineffective as a urease inhibitor
NP(N)(=O)Oc1ccccc1 [PPDA, Phenyl phosphorodiamidate] | competitive inhibition | 100 | 65 | 59 | 33 | 13 | 2 | 89 | 38 | 37 | 11 | – | – | 62.6 | 10.1 | 96.4 | 90.3 | 58.2 | extremely potent inhibitor of urease activity
NP(N)(N)=O [PTA, Phosphoryl triamide] | – | – | – | – | – | – | – | – | – | – | – | – | – | 54.6 | 2.6 | – | – | – | powerful urease inhibitors
NP(=O)(O)O [monoamidophosphoric acid] | – | – | – | – | – | – | – | – | – | – | – | – | – | – | – | – | – | – | effective urease inhibitors
NP(N)(=O)O [diamidophosphoric acid] | – | – | – | – | – | – | – | – | – | – | – | – | – | – | – | – | – | – | effective urease inhibitors
NP(N)(=S)Oc1ccccc1 [PTPDA, Phenylthiophosphenyl diamidate] | – | – | – | – | – | – | – | 56 | 21 | 24 | 2 | – | – | – | – | 100.0 | 97.2 | 65.7 | less effective as an inhibitor
